In PMC8774648, “Effects of Baicalein and Chrysin on the Structure and Functional Properties of β-Lactoglobulin” (Foods, 2022):
Values joined by “and” are separate entries in the source; they are usually repeats but may differ in a detail not shown here. Identical values can stand only once. Like-named read-outs stand apart in the source and are kept apart here. Marks after values point to notes of the source that are not given here.

Assays:
[1] = biological target: T1, β-lactoglobulin (BLG) (Bos taurus, UniProt P02754); assay: Emulsifying ability and emulsifying stability of BLG; details: for effect on emulsifying stability (ES) of BLG: BLG to Bai/Chr 40:1 to 10:1; for effect on emulsifying ability (EA) of BLG: with the increase of Bai or Chr concentration (BLG to Bai/Chr 40:1 to 10:1)
T1 construct: purchased Sigma–Aldrich Co. (St. Louis, MO, USA)
T1 sequence (P02754 17-178): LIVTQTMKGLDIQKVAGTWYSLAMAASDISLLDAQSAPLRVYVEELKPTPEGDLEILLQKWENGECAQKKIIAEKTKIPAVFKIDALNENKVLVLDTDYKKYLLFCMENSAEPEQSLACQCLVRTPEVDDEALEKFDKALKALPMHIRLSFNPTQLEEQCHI
Description: Emulsifying ability (EA) and emulsifying stability (ES) were investigated by the method of Xiong et al. with slight modification. BLG solution (1 mg mL^−1) was added to Bai/Chr to form the solutions with different ratios of BLG to Bai/Chr (40:1, 30:1, 20:1, 10:1), and then soybean oil was added to form BLG solution containing 10% (v/v) oil. The emulsion was fully dispersed for 2 min at a rate of 7000 r min^−1 and repeated for three times. At 0 and 10 min, 30 µL of emulsion was extracted from the bottom of the sample and immediately added to 3 mL of 0.1% SDS solution. The absorbance of the sample was measured at 500 nm and recorded as A0 and A10, respectively. The EA (m^2 g^−1) and ES (min) were calculated according to the following equations:(11) EA (m^2 g^−1)=2×2.303/c×Φ×L×10^4×A0×D (12) ES (min)=A0/A0−A10×10 where c is the weight of the BLG per unit volume (g mL^−1), Φ is the volume fraction of the oil phase, L is the length of light path, and D is the dilution factor, D = 100.

[2] = biological target: T1, β-lactoglobulin (BLG); assay: Three-dimensional fluorescence spectra of BLG with Bai/Chr; details: c(BLG) = 20.0 µM, c(Bai/Chr) = 20.0 μM; for fluorescence intensity of Peak 2 (3D fluorescence): free BLG 430.6; for fluorescence intensity of Peak 1 (3D fluorescence): free BLG 522.1
Description: (§1) Intrinsic fluorescence spectroscopic test was measured on a F–7000 spectrophotometer (Hitachi, Japan) equipped with temperature controller according to the method described in the previous study. Briefly, 3 mL solution of BLG (20.0 µM) was titrated by continuously adding different amounts of Bai or Chr (0–20.0 µM). The fluorescence spectra were recorded at different temperatures (298 K, 304 K, and 310 K) with the excitation wavelength of 280 nm and the excitation and emission slit set at 2.5 nm. Moreover, synchronous fluorescence spectra were conducted by setting the wavelength intervals (λem–λex) at 15 nm and 60 nm, respectively. The 3D fluorescence spectra (molar ratios of BLG to Bai/Chr were 1:0 and 1:1) were recorded at excitation and emission wavelength range of 200−600 nm. All the fluorescence values were corrected to eliminate the internal filtering effect according to the previous method, and were used to evaluate the quenching mechanism of Bai/Chr binding to BLG by using the following equation [21]:(1) F0/F=1+Kqτ0[Q]=1+KSV[Q] where F and F0 are the fluorescence intensities of fluorophore with and without quencher; Ksv denotes the Stern–Volmer quenching constant; Kq is the quenching rate constant (Kq = Ksv/τ0), and τ0 is the average lifetime of the biomolecule in the absence of a quencher (τ0 = 10^−8 s); [Q] represents the experimental concentration of Bai/Chr.

[3] = biological target: T1, β-lactoglobulin (BLG); assay: Intrinsic fluorescence quenching of BLG by Bai/Chr (Stern–Volmer and double logarithmic equations); type: binding; details: for Ksv (Stern–Volmer quenching constant) / Kd: pH 6.8; for BLG fluorescence quenching: after 10 times titration, c(BLG) = 20 µM
Description: as §1
For static fluorescence quenching mechanism, the binding constant (Ka) and the number of binding sites (n) could be determined by the following equation [22]:(2) logF0−F/F=nlogKa−nlog1/[Qt]−(F0−F)[Pt]/F0 where [Qt] and [Pt] are the concentrations of Bai/Chr and BLG, respectively.

[4] = biological target: T1, β-lactoglobulin (BLG); assay: Foaming ability and foaming stability of BLG; details: for increase of foaming stability (FS) of BLG: compared with BLG alone, molar ratio of BLG to Bai/Chr 10:1; for increase of foaming ability (FA) of BLG: compared with FA of free BLG (25.2%), molar ratios of BLG to Bai/Chr changed from 40:1 to 10:1
Description: Foaming ability (FA) and foaming stability (FS) were measured as described by Wang et al. with some modifications. A certain amount of BLG solution (1.0 mg mL^−1) was added to a 100 mL cylinder, and Bai or Chr was added to form solutions with different ratios of BLG to Bai or Chr (40:1, 30:1, 20:1, 10:1). The initial height H0 of the foam was recorded. The foam was then sheared at 10,000 rpm in a high-speed dispersion machine for 1 min and the height of the foam was recorded as H1. The height of the foam was recorded as H2 30 min later. The FA (%) and FS (%) were calculated according to the following equations:(9) FA (%)=H1−H0/H0×100 (10) FS (%)=H2−H0/H1−H0×100

[5] = biological target: T1, β-lactoglobulin (BLG); assay: Protein surface hydrophobicity (PSH) of BLG with ANS probe
Description: PSH of BLG in the presence or absence of Bai or Chr was determined using ANS as a fluorescent probe. In the BLG solution (20.0 µM) alone or Bai/Chr–BLG mixture the ANS solution (5 mM) was continuously added until the fluorescence intensity of the mixture remained constant. The fluorescence intensity of the sample was recorded in the wavelength range of 400–600 nm upon 380 nm excitation. The PSH values were calculated by the following equations [26]:(5) [ANS]bound=F/B (6) [ANS]free=[ANS]total−[ANS]bound (7) F/[ANS]free=−F/Kdapp−Fmax/Kdapp (8) PSH=Fmax/[BLG]Kdapp where [ANS]free and [ANS]bound are the concentration of free and bound ANS, respectively. Kdapp is the apparent dissociation constant of ANS, Fmax is the maximum fluorescence intensity at saturating ANS concentration and B is the proportionality coefficient.

[6] = biological target: T1, β-lactoglobulin (BLG); assay: Thermodynamic parameters of Bai/Chr–BLG binding (Van't Hoff equation); details: for ΔH° (enthalpy change) / ΔS° (entropy change): from Ka at 298, 304 and 310 K
Description: In order to determine the primary forces between BLG and Bai/Chr, thermodynamic parameters were calculated using the following equations [23]:(3) logKa=−ΔH°/2.303RT+ΔS°/2.303R (4) ΔG°=ΔH°−TΔS° where R and T represent gas constant (8.314 J mol^−1 K^−1) and temperature (298, 304, and 310 K), respectively. Enthalpy change (ΔH°) and entropy change (ΔS°) of interaction between ligands and biomolecules are the main criteria for evaluating acting force, and free energy (ΔG°) is the main criteria for estimating the spontaneity of interaction.

[7] = biological target: T1, β-lactoglobulin (BLG); assay: Free sulfhydryl (SH) content of BLG (DTNB); details: Bai/Chr 0 to 20.0 µM, BLG 20.0 µM
Description: The content of free SH was determined by spectrophotometry according to the report by Takić et al. with minor modifications. Briefly, Bai/Chr concentrations were varied from 0 to 20.0 µM, and BLG was kept at 20.0 µM. Then the two solutions were incubated with 10.0 mM DTNB in 50 mM PBS (pH 6.8) for 30 min at room temperature. The absorbance of the sample at 412 nm was recorded and the molar extinction coefficient (14,360 M^−1 cm^−1) was obtained from the standard curve of L-cysteine, which was used to calculate the number of total sulfhydryl groups per gram of protein.

[8] = biological target: T1, β-lactoglobulin (BLG); assay: CD spectra, secondary structure contents of BLG
Description: The CD spectra in the range of 200–250 nm were obtained from a CD spectrometer (MOS 450, Bio–Logic, Claix, France) equipped with 1.0 mm path length cuvette under the constant nitrogen flush. The solutions were prepared with molar ratios of Bai or Chr to BLG of 0:1, 1:1, and 2:1, respectively. The contents of secondary structure of BLG were determined based on our previously reported study.

[9] = general statement for the three temperatures
[10] = molar ratio 1:1, versus BLG alone
[11] = molar ratio 2:1, versus BLG alone
[12] = molar ratio of Bai/Chr to BLG 1:1
[13] = molar ratio of Bai/Chr to BLG 2:1
[14] = molar ratio of Bai/Chr to BLG 2:1, listed as Bai–BLG
[15] = molar ratio of Bai/Chr to BLG 2:1, listed as Chr–BLG

Structure (SMILES)	effect on emulsifying stability (ES) of BLG [1]	effect on emulsifying ability (EA) of BLG [1]	fluorescence intensity of Peak 2 (3D fluorescence) [2]	fluorescence intensity of Peak 1 (3D fluorescence) [2]	n (number of binding sites) ([3]; T = 298 K)	Ksv (Stern–Volmer quenching constant) ([3]; T = 298 K)	n (number of binding sites) ([3]; T = 304 K)	Ksv (Stern–Volmer quenching constant) ([3]; T = 304 K)	n (number of binding sites) ([3]; T = 310 K)	Ksv (Stern–Volmer quenching constant) ([3]; T = 310 K)	BLG fluorescence quenching ([3]; 298 K) [%]	n (number of binding sites) [3, 9]	increase of foaming stability (FS) of BLG [4] [%]	increase of foaming ability (FA) of BLG [4] [%]	F max (maximum fluorescence intensity at saturating ANS) ([5]; molar ratio 1:1)	PSH (protein surface hydrophobicity) ([5]; molar ratio 1:1)	Reduction Rate of PSH [5, 10]	F max (maximum fluorescence intensity at saturating ANS) ([5]; molar ratio 2:1)	PSH (protein surface hydrophobicity) ([5]; molar ratio 2:1)	Reduction Rate of PSH [5, 11]	further results
O=c1cc(-c2ccccc2)oc2cc(O)c(O)c(O)c12 [Bai, baicalein]	promoted the enhancement of ES	slightly improved	206.8	395.4	1.03 ± 0.03	5.75 ± 0.01 ^a ×10^4 L mol^−1	1.23 ± 0.02	4.76 ± 0.03 ^b ×10^4 L mol^−1	1.31 ± 0.03	4.47 ± 0.06 ^c ×10^4 L mol^−1	63.2	approximately 1	80.64	18.08	154.31 ± 3.09 ^ab	260.66 ± 5.21 ^b	20.87 ± 0.42 ^d %	120.27 ± 2.41 ^c	200.45 ± 4.01 ^d	39.15 ± 0.78 ^c %	Kd ([3]; T = 298 K, read-out: Ka (binding constant) (converted)): 3.6 µM; Kd ([3]; T = 304 K, read-out: Ka (binding constant) (converted)): 3.75 µM; Kd ([3]; T = 310 K, read-out: Ka (binding constant) (converted)): 3.92 µM; ΔG° (free energy) ([6]; T = 298 K): -7.421 kcal/mol; ΔG° (free energy) ([6]; T = 304 K): -7.543 kcal/mol; ΔG° (free energy) ([6]; T = 310 K): -7.665 kcal/mol; ΔH° (enthalpy change) [6]: -1.34 kcal/mol; ΔS° (entropy change) [6]: 85.44 J mol^−1 K^−1; effect on contents of free SH group of BLG [7]: gradually weakened; Random Coil content of BLG [8, 12]: 26.47 ± 0.41 ^b %; α-Helix content of BLG [8, 12]: 14.12 ± 0.70 ^c %; β-Sheet content of BLG [8, 12]: 36.25 ± 0.25 ^b %; β-Turn content of BLG [8, 12]: 23.16 ± 0.12 ^a %; Random Coil content of BLG [8, 13]: 25.26 ± 033 ^c %; β-Turn content of BLG [8, 13]: 24.77 ± 0.54 ^b %; α-Helix content of BLG [8, 14]: 15.85% and 15.85 ± 0.93 ^b %; β-Sheet content of BLG [8, 14]: 34.12% and 34.12 ± 0.34 ^d %
O=c1cc(-c2ccccc2)oc2cc(O)cc(O)c12 [Chr, chrysin]	did the opposite	slightly improved	205.3	378.5	1.45 ± 0.01	3.10 ± 0.04 ^d ×10^4 L mol^−1	1.01 ± 0.02	2.94 ± 0.06 ^e ×10^4 L mol^−1	1.29 ± 0.01	2.59 ± 0.04 ^f ×10^4 L mol^−1	59.0	approximately 1	85.57	51.32	151.76 ± 3.04 ^b	252.82 ± 5.07 ^c	23.25 ± 0.47 ^b %	110.17 ± 2.20 ^d	193.69 ± 3.87 ^e	41.20 ± 0.82 ^a %	Ka (binding constant) ([3]; 298 K): 214000 L/mol; Kd ([3]; Ka (binding constant), T = 298 K): 4.67 µM; Kd ([3]; Ka (binding constant), T = 304 K): 4.81 µM; Kd ([3]; Ka (binding constant), T = 310 K): 5.13 µM; Kdapp (apparent dissociation constant of ANS) ([5]; molar ratio 1:1, c(BLG) = 20.0 µM): 5.67 ± 0.31 µM; Kdapp (apparent dissociation constant of ANS) ([5]; molar ratio 2:1, c(BLG) = 20.0 µM): 5.7 ± 0.1 µM; ΔG° (free energy) ([6]; T = 298 K): -7.268 kcal/mol; ΔG° (free energy) ([6]; T = 304 K): -7.443 kcal/mol; ΔG° (free energy) ([6]; T = 310 K): -7.62 kcal/mol; ΔH° (enthalpy change) [6]: 1.48 kcal/mol; ΔS° (entropy change) [6]: 122.18 J mol^−1 K^−1; effect on contents of free SH group of BLG [7]: gradually weakened; Random Coil content of BLG [8, 12]: 25.96 ± 0.34 ^bc %; α-Helix content of BLG [8, 12]: 14.30 ± 0.47 ^c %; β-Sheet content of BLG [8, 12]: 35.18 ± 0.12 ^c %; β-Turn content of BLG [8, 12]: 24.56 ± 0.48 ^a %; Random Coil content of BLG [8, 13]: 31.16 ± 0.10 ^a %; β-Turn content of BLG [8, 13]: 24.53 ± 0.93 ^a %; α-Helix content of BLG [8, 15]: 11.25% and 11.25 ± 0.58 ^d %; β-Sheet content of BLG [8, 15]: 33.06% and 33.06 ± 0.30 ^e %
